Consider 24 compounds from US20250282785A1, “PYRROLIDINONE DERIVATIVES AS INHIBITORS OF NF KAPPA B INDUCING KINASE” (priority 2022, published 2025).

Assay [1] addresses Recombinant Human NF-Kappab-Inducing Kinase (NIK/MAP3K14) (Homo sapiens, UniProt Q99558). The experiment in a line: Inhibition of auto-phosphorylation of recombinant human NIK/MAP3K14 (AlphaScreen). The conditions noted are these: NIK/MAP3K14 auto-phosphorylation, 5 microM ATP, 1 nM enzyme, 2 h at 25° C.; average of values; read-out: Assay 1 IC50. The format is biochemical. In short, it runs like this: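 GST-tagged NIK (1 nM) auto-phosphorylation with 5 µM ATP in Tris pH 7.5/MgCl2 buffer, 0.7% DMSO, 2 h at 25 °C. Phospho-IKK Ser176/180 antibody detected by AlphaScreen beads. Signal normalized to full-enzyme and no-ATP controls; IC50 from sigmoidal fit of % inhibition vs log concentration.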
(In general: Bead proximity is the source of the signal in Alpha formats.)

The test system of assay [2] is p-IKKα levels in L363 (NIK translocated multiple myeloma) cells. Kind of assay: Effect of compounds on p-IKKα levels in L363 cells (AlphaLISA SureFire Ultra). The settings on record: Homo sapiens, L-363; L363 cells, BAFF stimulated, MG132, 6 h; average of values; read-out: Assay 2 IC50. The format is cell-based. In short, it runs like this: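 L363 myeloma cells were BAFF-stimulated (250 ng/ml) overnight in DMEM/0.5% BSA, then exposed 6 h at 37° C to compound (11-point 1:3 series, 0.3% DMSO) with BAFF plus 10 uM MG132. p-IKKα (Ser 176/180) was read by AlphaLISA SureFire Ultra in lysates. IC50 came from sigmoidal fits normalized to stimulated and unstimulated controls.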

Recombinant Human NF-Kappab-Inducing Kinase (NIK/MAP3K14), sequence (Q99558 whole entry): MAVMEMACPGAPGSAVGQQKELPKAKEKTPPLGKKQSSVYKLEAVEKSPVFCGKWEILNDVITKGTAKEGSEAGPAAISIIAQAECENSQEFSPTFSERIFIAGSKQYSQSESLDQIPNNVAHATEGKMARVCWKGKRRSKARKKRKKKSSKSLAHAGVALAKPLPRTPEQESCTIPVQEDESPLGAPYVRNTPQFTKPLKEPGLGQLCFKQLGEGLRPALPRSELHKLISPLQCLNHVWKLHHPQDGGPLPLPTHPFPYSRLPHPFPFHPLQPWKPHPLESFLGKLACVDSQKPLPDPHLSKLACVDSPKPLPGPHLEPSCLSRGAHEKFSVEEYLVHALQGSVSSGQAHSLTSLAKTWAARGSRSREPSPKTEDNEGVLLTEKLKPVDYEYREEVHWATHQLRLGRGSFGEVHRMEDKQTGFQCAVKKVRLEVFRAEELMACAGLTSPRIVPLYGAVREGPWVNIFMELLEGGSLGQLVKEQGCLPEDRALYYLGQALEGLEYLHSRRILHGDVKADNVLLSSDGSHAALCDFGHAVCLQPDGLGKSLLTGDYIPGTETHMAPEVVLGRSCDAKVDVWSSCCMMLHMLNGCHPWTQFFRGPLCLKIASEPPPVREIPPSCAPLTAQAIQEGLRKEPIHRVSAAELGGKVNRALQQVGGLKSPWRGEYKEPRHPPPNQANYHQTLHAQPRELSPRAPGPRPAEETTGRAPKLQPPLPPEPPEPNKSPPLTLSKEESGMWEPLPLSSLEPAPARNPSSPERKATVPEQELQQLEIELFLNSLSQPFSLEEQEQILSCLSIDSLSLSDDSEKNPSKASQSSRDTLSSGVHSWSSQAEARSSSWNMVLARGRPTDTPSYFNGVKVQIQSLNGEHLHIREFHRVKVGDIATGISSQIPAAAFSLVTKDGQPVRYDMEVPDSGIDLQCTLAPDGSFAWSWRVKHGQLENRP

What is called IC50 is the concentration needed to halve the response being measured. For the compound `COc1cc(-c2cccc(-c3cc([C@]4(O)CCN(C)C4=O)on3)c2)nc2c(N)ncnc12` [Example 118, (R)-3-(3-(3-(4-Amino-8-methoxypyrido[3,2-d]pyrimidin-6-yl)phenyl)isoxazol-5-yl)-3-hydroxy-1-methylpyrrolidin-2-one], the IC50 was less than 0.1 µM in assay [1] and 0.1 to 0.5 µM in assay [2].
Consider `COc1cc(-c2cc(-c3cc([C@@]4(O)C(=O)N(C)CC4(F)F)on3)ccc2F)nc2c(N)ncnc12` [Example 119, (R)-3-(3-(3-(4-Amino-8-methoxypyrido[3,2-d]pyrimidin-6-yl)-4-fluorophenyl)isoxazol-5-yl)-4,4-difluoro-3-hydroxy-1-methylpyrrolidin-2-one], for which the IC50 was less than 0.1 µM in assay [1] and 0.1 to 0.5 µM in assay [2].
For `COc1cc(-c2cc(-c3cc([C@]4(O)CCN(C)C4=O)on3)ccc2F)nc2c(N)ncnc12` [Example 120, (R)-3-(3-(3-(4-Amino-8-methoxypyrido[3,2-d]pyrimidin-6-yl)-4-fluorophenyl)isoxazol-5-yl)-3-hydroxy-1-methylpyrrolidin-2-one] the same measures were less than 0.1 µM and greater than 0.501 µM.
In the case of `CN1CC[C@@](O)(c2cc(-c3ccc(F)c(-c4ncc(NC5COC5)c(C(N)=O)n4)c3)no2)C1=O` [Example 121, (R)-2-(2-Fluoro-5-(5-(3-hydroxy-1-methyl-2-oxopyrrolidin-3-yl)isoxazol-3-yl)phenyl)-5-(oxetan-3-ylamino)pyrimidine-4-carboxamide], the IC50 was less than 0.1 µM in assay [1] and 0.1 to 0.5 µM in assay [2].
Regarding `Cc1c(-c2cccc(-c3cc([C@]4(O)CCN(C)C4=O)on3)c2)nc(C(N)=O)n1C1CC1` [Example 122, (R)-1-Cyclopropyl-4-(3-(5-(3-hydroxy-1-methyl-2-oxopyrrolidin-3-yl)isoxazol-3-yl)phenyl)-5-methyl-1H-imidazole-2-carboxamide], the IC50 in assay [1] was 0.1 to 0.5 µM; in assay [2] it was greater than 0.501 µM.
For `Cc1nc(-c2cc(-c3cc([C@@]4(O)C(=O)N(C)CC4(F)F)on3)cc(F)c2F)nc2c(N)ncnc12` [Example 123, (R)-3-(3-(3-(8-amino-4-methylpyrimido[5,4-d]pyrimidin-2-yl)-4,5-difluorophenyl)isoxazol-5-yl)-4,4-difluoro-3-hydroxy-1-methylpyrrolidin-2-one] the same measures were less than 0.1 µM and 0.1 to 0.5 µM.
With `CN1CC[C@@](O)(c2cc(-c3cccc(-c4cc5c(c(C(N)=O)n4)CCCC5)c3)no2)C1=O` [Example 124, (R)-3-(3-(5-(3-Hydroxy-1-methyl-2-oxopyrrolidin-3-yl)isoxazol-3-yl)phenyl)-5,6,7,8-tetrahydroisoquinoline-1-carboxamide], the IC50 in assay [1] is less than 0.1 µM; in assay [2], greater than 0.501 µM.
For `CN1CC[C@@](O)(c2cc(-c3cccc(-c4nc5c(c(C(N)=O)n4)CCCC5)c3)no2)C1=O` [Example 125, (R)-2-(3-(5-(3-Hydroxy-1-methyl-2-oxopyrrolidin-3-yl)isoxazol-3-yl)phenyl)-5,6,7,8-tetrahydroquinazoline-4-carboxamide], the results for the half-maximal inhibitory concentration (IC50) in assay [1] and in assay [2] were less than 0.1 µM and greater than 0.501 µM, respectively.
With `CN1CC[C@@](O)(c2cc(-c3cccc(-c4ncc(N)c(C(=O)N[C@H]5CCOC5)n4)c3)no2)C1=O` [Example 126, 5-Amino-2-(3-(5-((R)-3-hydroxy-1-methyl-2-oxopyrrolidin-3-yl)isoxazol-3-yl)phenyl)-N—((S)-tetrahydrofuran-3-yl)pyrimidine-4-carboxamide], the IC50 in assay [1] is less than 0.1 µM; in assay [2], greater than 0.501 µM.
For the compound `CN1CC[C@@](O)(c2cc(-c3cccc(-c4ncc(N[C@H]5CCOC5)c(C(N)=O)n4)c3)no2)C1=O` [Example 127, 2-(3-(5-((R)-3-hydroxy-1-methyl-2-oxopyrrolidin-3-yl)isoxazol-3-yl)phenyl)-5-(((S)-tetrahydrofuran-3-yl)amino)pyrimidine-4-carboxamide], the IC50 in assay [1] and in assay [2] was less than 0.1 µM throughout.
As to `CN1CC[C@@](O)(c2cc(-c3cccc(-c4ncc(N)c(C(=O)N[C@@H]5CCOC5)n4)c3)no2)C1=O` [Example 128, 5-Amino-2-(3-(5-((R)-3-hydroxy-1-methyl-2-oxopyrrolidin-3-yl)isoxazol-3-yl)phenyl)-N—((R)-tetrahydrofuran-3-yl)pyrimidine-4-carboxamide], the IC50 in assay [1] was less than 0.1 µM; in assay [2] it was greater than 0.501 µM.
As to `CN1CC[C@@](O)(c2cc(-c3cccc(-c4ncc(N[C@@H]5CCOC5)c(C(N)=O)n4)c3)no2)C1=O` [Example 129, 2-(3-(5-((R)-3-hydroxy-1-methyl-2-oxopyrrolidin-3-yl)isoxazol-3-yl)phenyl)-5-(((R)-tetrahydrofuran-3-yl)amino)pyrimidine-4-carboxamide], the IC50 in assay [1] and in assay [2] was less than 0.1 µM throughout.
Consider `CN1CC[C@@](O)(c2cc(-c3cccc(-c4ncc(Nc5ccn(C)n5)c(C(N)=O)n4)c3)no2)C1=O` [Example 130, (R)-2-(3-(5-(3-Hydroxy-1-methyl-2-oxopyrrolidin-3-yl)isoxazol-3-yl)phenyl)-5-((1-methyl-1H-pyrazol-3-yl)amino)pyrimidine-4-carboxamide], for which the IC50 in assay [1] and in assay [2] was less than 0.1 µM each time.
For `CN1CC[C@@](O)(c2cc(-c3cccc(-c4cc(N[C@H]5CCOC5)cc(C(N)=O)n4)c3)no2)C1=O` [Example 131, 6-(3-(5-((R)-3-Hydroxy-1-methyl-2-oxopyrrolidin-3-yl)isoxazol-3-yl)phenyl)-4-(((S)-tetrahydrofuran-3-yl)amino)picolinamide], the half-inhibitory concentration (IC50) in assay [1] and in assay [2] was greater than 0.501 µM each time.
For the compound `CN1CC[C@@](O)(c2cc(-c3cccc(-c4nc(C(N)=O)c(N)c(C5CC5)n4)c3)no2)C1=O` [Example 132, (R)-5-Amino-6-cyclopropyl-2-(3-(5-(3-hydroxy-1-methyl-2-oxopyrrolidin-3-yl)isoxazol-3-yl)phenyl)pyrimidine-4-carboxamide], the IC50 in assay [1] and in assay [2] was less than 0.1 µM each time.
For the compound `CN1CC[C@@](O)(c2cc(-c3cccc(-c4nc(Nc5ccn(C)n5)c(C(F)(F)F)c(C(N)=O)n4)c3)no2)C1=O` [Example 133, (R)-2-(3-(5-(3-Hydroxy-1-methyl-2-oxopyrrolidin-3-yl)isoxazol-3-yl)phenyl)-6-((1-methyl-1H-pyrazol-3-yl)amino)-5-(trifluoromethyl)pyrimidine-4-carboxamide], the IC50 in assay [1] is less than 0.1 µM; in assay [2], greater than 0.501 µM.
In the case of `CN1CC[C@@](O)(c2cc(-c3cccc(-c4nc(C(N)=O)c5[nH]ccc5n4)c3)no2)C1=O` [Example 134, (R)-2-(3-(5-(3-Hydroxy-1-methyl-2-oxopyrrolidin-3-yl)isoxazol-3-yl)phenyl)-5H-pyrrolo[3,2-d]pyrimidine-4-carboxamide], the IC50 in assay [1] and in assay [2] was less than 0.1 µM in each case.
`CN1CC[C@@](O)(c2cc(-c3cccc(-c4ncc(N)c(C(N)=O)n4)c3)no2)C1=O` [Example 135, (R)-5-Amino-2-(3-(5-(3-Hydroxy-1-methyl-2-oxopyrrolidin-3-yl)isoxazol-3-yl)phenyl)pyrimidine-4-carboxamide]: the IC50 in assay [1] and in assay [2] was less than 0.1 µM in each case.
With `COc1nc(-c2cccc(-c3cc([C@]4(O)CCN(C)C4=O)on3)c2)nc(OC)c1N` [Example 136, (R)-3-(3-(3-(5-Amino-4,6-dimethoxypyrimidin-2-yl)phenyl)isoxazol-5-yl)-3-hydroxy-1-methylpyrrolidin-2-one], the IC50 is 0.1 to 0.5 µM in assay [1] and greater than 0.501 µM in assay [2].
For `CN1CC[C@@](O)(c2cc(-c3cccc(-c4ncc(Nc5cnn(C)c5)c(C(N)=O)n4)c3)no2)C1=O` [Example 137, (R)-2-(3-(5-(3-Hydroxy-1-methyl-2-oxopyrrolidin-3-yl)isoxazol-3-yl)phenyl)-5-((1-methyl-1H-pyrazol-4-yl)amino)pyrimidine-4-carboxamide], the IC50 in assay [1] and in assay [2] was less than 0.1 µM in each case.
As to `COc1ncc(-c2cccc(-c3cc([C@]4(O)CCN(C)C4=O)on3)c2)c(C(N)=O)n1` [Example 138, (R)-5-(3-(5-(3-Hydroxy-1-methyl-2-oxopyrrolidin-3-yl)isoxazol-3-yl)phenyl)-2-methoxypyrimidine-4-carboxamide], the concentration for half-maximal inhibition (IC50) in assay [1] and in assay [2] was greater than 0.501 µM each time.
For the compound `CN1CC[C@@](O)(c2cc(-c3cccc(-c4cc5cc[nH]c5c(C(N)=O)n4)c3)no2)C1=O` [Example 139, (R)-5-(3-(5-(3-Hydroxy-1-methyl-2-oxopyrrolidin-3-yl)isoxazol-3-yl)phenyl)-1H-pyrrolo[2,3-c]pyridine-7-carboxamide], the IC50 in assay [1] and in assay [2] was less than 0.1 µM each time.
Regarding `CN1CC(F)(F)[C@@](O)(c2cc(-c3ccc(F)c(-c4nc(C(N)=O)c5[nH]ccc5n4)c3)no2)C1=O` [Example 140, (R)-2-(5-(5-(4,4-Difluoro-3-hydroxy-1-methyl-2-oxopyrrolidin-3-yl)isoxazol-3-yl)-2-fluorophenyl)-5H-pyrrolo[3,2-d]pyrimidine-4-carboxamide], the IC50 in assay [1] and in assay [2] was less than 0.1 µM in each case.
On to `CN1CC[C@@](O)(c2cc(-c3cccc(-c4ncc(Nc5cn[nH]c5)c(C(N)=O)n4)c3)no2)C1=O` [Example 141, (R)-5-((1H-Pyrazol-4-yl)amino)-2-(3-(5-(3-hydroxy-1-methyl-2-oxopyrrolidin-3-yl)isoxazol-3-yl)phenyl)pyrimidine-4-carboxamide], for which the IC50 in assay [1] and in assay [2] was less than 0.1 µM in each case.
